Patent US6525001B1, “Substituted pyrimidine and pyridine herbicides” (Mid-American Commercialization Corporation, priority 1997, dated 2003)

How the values were obtained:
[1] = test system: barnyardgrass (Echinochloa crus-galli); assay: Test A pre-/postemergence; assay type: in vivo; set-up: key: 0 is no effect; 10 is complete control; conditions: 0 to 10 scale
Procedure: (§1) Seeds of barnyardgrass (Echinochloa crus-galli), crabgrass (Digitaria spp.), morningglory (Ipomoea spp.), and velvetleaf (Abutilon theophrasti) were planted into a sandy loam soil and treated preemergence by soil drench with test chemicals formulated in a non-phytotoxic solvent mixture which includes a surfactant. At the same time, these crop and weed species were also treated postemergence sprayed to runoff, with test chemicals formulated in the same manner. Plants ranged in height from two to eighteen cm and were in the one to two leaf stage for the postemergence treatment. Treated plants and untreated controls were maintained in a greenhouse for approximately eleven days, after which all treated plants were compared to untreated controls and visually evaluated for injury. Plant response ratings, summarized in Table A, are based on a 0 to 10 scale where 0 is no effect and 10 is complete control. A dash (−) response means no test results.

[2] = test system: crabgrass (Digitaria spp.); assay: Test A pre-/postemergence; assay type: in vivo; set-up: key: 0 is no effect; 10 is complete control; conditions: 0 to 10 scale
Procedure: as §1

[3] = test system: morningglory (Ipomoea spp.); assay: Test A pre-/postemergence; assay type: in vivo; set-up: key: 0 is no effect; 10 is complete control; conditions: 0 to 10 scale
Procedure: as §1

[4] = test system: velvetleaf (Abutilon theophrasti); assay: Test A pre-/postemergence; assay type: in vivo; set-up: key: 0 is no effect; 10 is complete control; conditions: 0 to 10 scale
Procedure: as §1

[5] = test system: bedstraw (Galium aparine); assay: Test B pre-/postemergence; assay type: in vivo; set-up: key: 0 is no effect; 10 is complete control; conditions: Postemergence
Summary of the method: (§2)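 Compounds in a surfactant-containing, non-phytotoxic solvent blend are applied to freshly planted seed (preemergence) and, concurrently, to seedlings of 2 to 18 cm at 1–4 leaves (postemergence). Plants stay in the greenhouse twelve to sixteen days and are then scored visually from 0 (no effect) to 10 (complete control).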

[6] = test system: blackgrass (Alopecurus myosuroides); assay: Test B pre-/postemergence; assay type: in vivo; set-up: key: 0 is no effect; 10 is complete control; conditions: for Blackgrass plant response rating: Preemergence
Summary of the method: as §2

[7] = test system: broadleaf signalgrass (Brachiaria decumbens); assay: Test B pre-/postemergence; assay type: in vivo; set-up: key: 0 is no effect; 10 is complete control; conditions: for B. signalgrass plant response rating: Preemergence
Summary of the method: as §2

[8] = test system: cocklebur (Xanthium strumarium); assay: Test B pre-/postemergence; assay type: in vivo; set-up: key: 0 is no effect; 10 is complete control; conditions: for Plant response rating, Cocklebur: Postemergence; for Cocklebur plant response rating: Preemergence
Summary of the method: as §2

corn (Zea mays) = assay: Test B pre-/postemergence; assay type: in vivo; set-up: key: 0 is no effect; 10 is complete control; conditions: for Corn plant response rating: Preemergence
Summary of the method: as §2

[9] = test system: crabgrass (Digitaria sanguinalis); assay: Test B pre-/postemergence; assay type: in vivo; set-up: key: 0 is no effect; 10 is complete control; conditions: for Crabgrass plant response rating: Preemergence
Summary of the method: as §2

[10] = test system: giant foxtail (Setaria faberii); assay: Test B pre-/postemergence; assay type: in vivo; set-up: key: 0 is no effect; 10 is complete control
Summary of the method: as §2

[11] = test system: momingglory (Ipomoea hederacea); assay: Test B pre-/postemergence; assay type: in vivo; set-up: key: 0 is no effect; 10 is complete control
Summary of the method: as §2

[12] = test system: pigweed (Amaranthus retroflexus); assay: Test B pre-/postemergence; assay type: in vivo; set-up: key: 0 is no effect; 10 is complete control
Summary of the method: as §2

[13] = test system: purple nutsedge (Cyperus rotundus); assay: Test B pre-/postemergence; assay type: in vivo; set-up: key: 0 is no effect; 10 is complete control
Summary of the method: as §2

rape (Brassica napus) = assay: Test B pre-/postemergence; assay type: in vivo; set-up: key: 0 is no effect; 10 is complete control
Summary of the method: as §2

soybean (Glycine max) = assay: Test B pre-/postemergence; assay type: in vivo; set-up: key: 0 is no effect; 10 is complete control
Summary of the method: as §2

[14] = test system: sugar beet (Beta vulgaris); assay: Test B pre-/postemergence; assay type: in vivo; set-up: key: 0 is no effect; 10 is complete control
Summary of the method: as §2

[15] = test system: velvetleaf (Abutilon theophrasti); assay: Test B pre-/postemergence; assay type: in vivo; set-up: key: 0 is no effect; 10 is complete control
Summary of the method: as §2

[16] = test system: wheat (Triticum aestivum); assay: Test B pre-/postemergence; assay type: in vivo; set-up: key: 0 is no effect; 10 is complete control
Summary of the method: as §2

wild oat (Avena fatua) = assay: Test B pre-/postemergence; assay type: in vivo; set-up: key: 0 is no effect; 10 is complete control
Summary of the method: as §2

[17] = test system: bamyardgrass (Echinochloa crus-galli); assay: Test B flood test; assay type: in vivo
Summary of the method: (§3)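 Read-out is a visual response score from 0 (no effect) to 10 (complete control), assigned by comparison with untreated controls. Treatment was applied at the 2-leaf stage, and plants stayed in the greenhouse for twelve to sixteen days before scoring.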

[18] = test system: duck salad (Heteranthera limosa); assay: Test B flood test; assay type: in vivo
Summary of the method: as §3

rice (Oryza sativa) = assay: Test B flood test; assay type: in vivo
Summary of the method: as §3

[19] = test system: smallflower flatsedge (Cyperus difformis); assay: Test B flood test; assay type: in vivo
Summary of the method: as §3

[20] = PRE SOIL DRENCH, Rate 1000 g/ha
[21] = PRE SOIL DRENCH, Rate 2000 g/ha
[22] = postemergence SPRAYED TO RUNOFF, Rate 500 g/ha
[23] = postemergence SPRAYED TO RUNOFF, Rate 1000 g/ha
[24] = Rate 250 g/ha, Postemergence (so in the source)
[25] = Rate 62 g/ha, Postemergence (flood test)
[26] = Rate 125 g/ha, Postemergence, flood test
[27] = Rate 250 g/ha, Postemergence (flood test species)
[28] = Rate 125 g/ha, Postemergence section (flood test species)

Cc1cnc(-c2ccc(C(F)(F)F)cc2)nc1C(=O)c1cccc(C(F)(F)F)c1 [Example 5, [5-methyl-2-[4-(trifluoromethyl)phenyl]-4-pyrimidinyl][3-(trifluoromethyl)phenyl]methanone]
98 to 100 °C: melting point

Cc1cnc(-c2ccccc2)nc1Cn1cnc(C(F)(F)F)c1 [Compound 8]
9: Plant response rating, Crabgrass [2, 20] | Plant response rating, Morningglory [3, 20]
8: Plant response rating, Crabgrass [2, 22] | Plant response rating, Morningglory [3, 21]
7: Plant response rating, Barnyardgrass [1, 21] | Plant response rating, Morningglory [3, 23]
5: Plant response rating, Crabgrass [2, 23]
1: Plant response rating, Velvetleaf [4, 22]
4: Plant response rating, Barnyardgrass [1, 20]
3: Plant response rating, Barnyardgrass [1, 22] | Plant response rating, Barnyardgrass [1, 23] | Plant response rating, Morningglory [3, 22] | Plant response rating, Velvetleaf [4, 21]
2: Plant response rating, Velvetleaf [4, 20] | Plant response rating, Velvetleaf [4, 23]
10: Plant response rating, Crabgrass [2, 21]

Cc1cnc(-n2ccc(C(F)(F)F)n2)nc1C(=O)c1cccc(C(F)(F)F)c1 [Example 4, [5-methyl-2-[3-(trifluoromethyl)-1H-pyrazol-1-yl]-4-pyrimidinyl][3-(trifluoromethyl)phenyl]methanone]
82 to 91 °C: melting point

Cc1cnc(-c2ccc(F)cc2F)nc1Cc1cccc(C(F)(F)F)c1 [Compound 31]
1: Blackgrass plant response rating ([6]; Rate 62 g/ha) | Plant response rating, Corn (corn (Zea mays); [24]) | Crabgrass plant response rating ([9]; Rate 62 g/ha) | Redroot pigweed plant response rating ([12]; Rate 62 g/ha, Preemergence) | Plant response rating, Rape (rape (Brassica napus); [24]) | Wheat plant response rating ([16]; Rate 62 g/ha, Postemergence) | Plant response rating, Wild oats (wild oat (Avena fatua); Rate 125 g/ha, Preemergence) | Plant response rating, Ducksalad [18, 25] | Plant response rating, Rice (rice (Oryza sativa); [25])
4: Plant response rating, Bedstraw ([5]; Rate 62 g/ha) | Plant response rating, Blackgrass ([6]; Rate 250 g/ha, Postemergence) | Plant response rating, Crabgrass ([9]; Rate 62 g/ha, Postemergence) | Crabgrass plant response rating ([9]; Rate 125 g/ha) | Plant response rating, Morningglory ([11]; Rate 250 g/ha, Postemergence) | Plant response rating, Soybean (soybean (Glycine max); Rate 62 g/ha, Postemergence) | Soybean plant response rating (soybean (Glycine max); Rate 125 g/ha, Postemergence) | Plant response rating, Velvetleaf ([15]; Rate 250 g/ha, Postemergence) | Plant response rating, Wheat ([16]; Rate 250 g/ha, Postemergence) | Plant response rating, Wild oats (wild oat (Avena fatua); Rate 250 g/ha, Postemergence) | Plant response rating, S. Flatsedge [19, 25]
5: Plant response rating, B. signalgrass ([7]; Rate 250 g/ha, Postemergence) | Giant foxtail plant response rating ([10]; Rate 125 g/ha, Preemergence) | Plant response rating, Barnyardgrass [17, 27]
6: Plant response rating, Bedstraw ([5]; Rate 125 g/ha) | Plant response rating, Bedstraw ([5]; Rate 250 g/ha) | Plant response rating, Cocklebur ([8]; Rate 62 g/ha) | Plant response rating, Cocklebur ([8]; Rate 125 g/ha) | Plant response rating, Ducksalad [18, 27]
2: Plant response rating, Blackgrass ([6]; Rate 62 g/ha, Postemergence) | Plant response rating, Blackgrass ([6]; Rate 125 g/ha, Postemergence) | Blackgrass plant response rating ([6]; Rate 125 g/ha) | Plant response rating, Corn (corn (Zea mays); Rate 62 g/ha, Postemergence) | Plant response rating, Corn (corn (Zea mays); Rate 125 g/ha, Postemergence) | Plant response rating, Corn (corn (Zea mays); Rate 250 g/ha, Postemergence) | Plant response rating, Giant foxtail ([10]; Rate 62 g/ha, Postemergence) | Giant foxtail plant response rating ([10]; Rate 62 g/ha, Preemergence) | Morningglory plant response rating ([11]; Rate 125 g/ha, Preemergence) | Plant response rating, Morningglory [11, 24] | Redroot pigweed plant response rating ([12]; Rate 125 g/ha, Preemergence) | Plant response rating, Velvetleaf ([15]; Rate 62 g/ha, Postemergence) | Velvetleaf plant response rating ([15]; Rate 125 g/ha, Postemergence) | Wild oats plant response rating (wild oat (Avena fatua); Rate 62 g/ha, Postemergence) | Plant response rating, Wild oats (wild oat (Avena fatua); [24]) | Plant response rating, Barnyardgrass [17, 25] | Plant response rating, Ducksalad [18, 26] | Rice plant response rating (rice (Oryza sativa); [28])
8: Plant response rating, Crabgrass ([9]; Rate 125 g/ha, Postemergence) | Plant response rating, Redroot pigweed ([12]; Rate 62 g/ha, Postemergence) | Plant response rating, Rape (rape (Brassica napus); Rate 62 g/ha, Postemergence) | Rape plant response rating (rape (Brassica napus); Rate 125 g/ha, Postemergence) | Plant response rating, S. Flatsedge [19, 27]
7: Plant response rating, Cocklebur ([8]; Rate 250 g/ha) | Plant response rating, Soybean (soybean (Glycine max); Rate 250 g/ha, Postemergence) | S. Flatsedge plant response rating [19, 28]
0: Cocklebur plant response rating ([8]; Rate 62 g/ha) | Cocklebur plant response rating ([8]; Rate 125 g/ha) | Corn plant response rating (corn (Zea mays); Rate 62 g/ha) | Corn plant response rating (corn (Zea mays); Rate 125 g/ha) | Morningglory plant response rating ([11]; Rate 62 g/ha, Preemergence) | Plant response rating, Nutsedge ([13]; Rate 62 g/ha, Postemergence) | Nutsedge plant response rating ([13]; Rate 62 g/ha, Preemergence) | Nutsedge plant response rating ([13]; Rate 125 g/ha, Postemergence) | Nutsedge plant response rating ([13]; Rate 125 g/ha, Preemergence) | Plant response rating, Nutsedge [13, 24] | Rape plant response rating (rape (Brassica napus); Rate 62 g/ha, Preemergence) | Rape plant response rating (rape (Brassica napus); Rate 125 g/ha, Preemergence) | Soybean plant response rating (soybean (Glycine max); Rate 62 g/ha, Preemergence) | Plant response rating, Soybean (soybean (Glycine max); Rate 125 g/ha, Preemergence) | Plant response rating, Soybean (soybean (Glycine max); [24]) | Sugarbeets plant response rating ([14]; Rate 62 g/ha, Preemergence) | Plant response rating, Sugarbeets ([14]; Rate 125 g/ha, Preemergence) | Velvetleaf plant response rating ([15]; Rate 62 g/ha, Preemergence) | Plant response rating, Velvetleaf ([15]; Rate 125 g/ha, Preemergence) | Plant response rating, Velvetleaf [15, 24] | Wheat plant response rating ([16]; Rate 62 g/ha, Preemergence) | Plant response rating, Wheat ([16]; Rate 125 g/ha, Preemergence) | Plant response rating, Wheat [16, 24] | Wild oats plant response rating (wild oat (Avena fatua); Rate 62 g/ha, Preemergence)
9: B. signalgrass plant response rating ([7]; Rate 125 g/ha) | Plant response rating, B. signalgrass ([7]; Rate 250 g/ha, Postemergence as printed in head r139 (second section for compounds 26-50)) | Plant response rating, Crabgrass ([9]; Rate 250 g/ha, Postemergence) | Redroot pigweed plant response rating ([12]; Rate 125 g/ha, Postemergence) | Plant response rating, Redroot pigweed ([12]; Rate 250 g/ha, Postemergence) | Plant response rating, Rape (rape (Brassica napus); Rate 250 g/ha, Postemergence)
10: Plant response rating, Crabgrass [9, 24] | Plant response rating, Giant foxtail [10, 24] | Plant response rating, Sugarbeets ([14]; Rate 62 g/ha, Postemergence) | Sugarbeets plant response rating ([14]; Rate 125 g/ha, Postemergence) | Plant response rating, Sugarbeets ([14]; Rate 250 g/ha, Postemergence)
3: Plant response rating, Blackgrass [6, 24] | Plant response rating, B. signalgrass ([7]; Rate 62 g/ha, Postemergence) | B. signalgrass plant response rating ([7]; Rate 62 g/ha) | Plant response rating, B. signalgrass ([7]; Rate 125 g/ha, Postemergence) | Giant foxtail plant response rating ([10]; Rate 125 g/ha, Postemergence) | Plant response rating, Giant foxtail ([10]; Rate 250 g/ha, Postemergence) | Plant response rating, Morningglory ([11]; Rate 62 g/ha, Postemergence) | Morningglory plant response rating ([11]; Rate 125 g/ha, Postemergence) | Plant response rating, Redroot pigweed [12, 24] | Plant response rating, Sugarbeets [14, 24] | Wheat plant response rating ([16]; Rate 125 g/ha, Postemergence) | Wild oats plant response rating (wild oat (Avena fatua); Rate 125 g/ha, Postemergence) | Plant response rating, Barnyardgrass [17, 26] | Plant response rating, Rice (rice (Oryza sativa); [27])
